This note sets out measurements from PubChem BioAssay (NCI).

Holding throughout (test): growth of human tumour cells (NCI), 48 h
The test system of assay [1] is A549 NSCLC.
Assay [2] deals with COLO 205 colon.
The subject of assay [3] is NCI-H226 lung.
Assay [4] has as its system OVCAR-5 ovarian.
Assay [5] concerns SF-268 CNS.
The test system of assay [6] is SNB-19 CNS.
For assay [7], the system named is NCI-H460 lung.
Assay [8] has as its system MDA-MB-231 breast.
In assay [9] the test system is MDA-MB-435.
Assay [10] relates to BT-549 breast.

The structures appear in SMILES notation.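 Briefly, cells in 96-well plates were exposed to five compound concentrations for 48 h, and endpoints were estimated by linear interpolation. Abbreviation: GI50, concentration required for 50% inhibition of growth. TGI marks complete inhibition of growth.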

`c1ccc(-c2nnc(-c3nn(-c4ccccc4)c4nc5ccccc5nc34)o2)cc1`: the TGI in [1] is more than 100 µM; in assay [2], more than 100 µM; in assay [3], 99.5 µM; in [4], more than 100 µM; in assay [5] it was more than 100 µM; in assay [6], more than 100 µM.

`O=C(N/N=C/c1cccc(O)c1O)N/N=C/c1cccc(O)c1O`: the TGI was more than 100 µM in [1]; more than 100 µM in assay [2]; 59.5 µM in assay [3]; more than 100 µM in assay [7]; 59 µM in assay [4]; more than 100 µM in assay [5]. Further, in [6], the TGI was more than 100 µM.

Consider `O=C1NC(=O)C2C(=O)NC(=O)C1C2(c1ccccc1)c1ccc(Cl)cc1` (stereo not given), for which the TGI in assay [1], in assay [2], in assay [3], in [7], in [4] and in assay [5] was more than 100 µM in each case. Further, the TGI in assay [6] was more than 100 µM.

For `CCOC(=O)CCCO`, the TGI in assay [1], in assay [7], in [4], in assay [5] and in [6] was more than 100 µM each time.

Regarding `O=C1/C(=C/c2ccccc2)CN(C(=O)Oc2ccc(Cl)cc2)C/C1=C\c1ccccc1`, the TGI in assay [1] is 16.6 µM; in assay [2] it was 9.53 µM; in [3], 16.6 µM; in assay [7], 9.84 µM; in assay [4], 23.2 µM; in assay [5], 8.77 µM. For the same compound, in assay [6], the TGI came out at 10.1 µM.

As for `NC1(CCCCCCCCCCC(=O)O)CNCCNCCNCCNC1`, the TGI was more than 100 µM in assay [1]; more than 100 µM in assay [2]; 86.4 µM in assay [7]; 45.6 µM in assay [4]; more than 100 µM in assay [5]; 77.6 µM in assay [6].

Take `C[C@]12CCC(=O)C=C1CC[C@@H]1C2CC[C@]2(C)NC(=O)C(C#N)CC12` (stereo not given in full): the TGI in assay [1], in assay [3], in assay [7] and in [4] was more than 100 µM throughout.

For `COc1ccc(N=Cc2cc(OC)c(OC)c(OC)c2)cc1`, the TGI in assay [1], in [7], in assay [4], in [5] and in [6] was more than 100 µM in each case.

Turning to `CCCCn1/c(=N/C(=S)N(C)C)ss/c1=N\C(=S)N(C)C`, the TGI in [1], in assay [3], in assay [7], in [4], in [5] and in assay [6] was more than 100 µM each time.

With `CN1CN(c2ccccc2)C2(CCN(CCCC3(c4cccs4)OCCO3)CC2)C1=O`, the TGI in assay [1], in [2], in assay [8], in [9], in [3] and in assay [7] was more than 100 µM throughout. For the same compound, the TGI in assay [4], in assay [5] and in assay [6] was more than 100 µM throughout.

With `CCOC(=O)C(=O)N1C(C)=C(C(=O)OCC)CC(C(=O)OCC)=C1C`, the TGI in assay [1], in assay [2], in assay [8], in assay [9], in assay [7] and in assay [4] was more than 100 µM each time. In addition, the TGI in [6] is more than 100 µM.

Take `C#CC(C)(C)Oc1cc(O)c2c(=O)c3ccccc3n(C)c2c1`: the TGI in assay [1], in assay [2], in assay [3], in assay [7], in [4] and in assay [5] was more than 100 µM each time. Moreover, the TGI in [6] is more than 100 µM.

For `O=[N+]([O-])c1ccc(NSc2ccccc2)cc1`, the TGI in assay [1], in [2], in assay [7], in [4], in assay [5] and in assay [6] was more than 100 µM each time.

In the case of `Cc1c(C(=O)/C=C/c2cccc3ccccc23)[n+](=O)c2ccccc2n1[O-]`, the TGI is 35 µM in assay [1]; 26.9 µM in assay [2]; 27.9 µM in assay [3]; 32.5 µM in assay [7]; 28.5 µM in assay [4]; 29.3 µM in assay [5]. Besides, the TGI in assay [6] came to 29.7 µM.

`O=C1CC[C@H]2CNC(=O)C[C@H]2C1`: the TGI in assay [1], in assay [2], in assay [7], in assay [5] and in [6] was more than 100 µM each time.

For `Cc1cc(C)nc(NS(=O)(=O)c2ccc(NC(=O)c3cccc4c(=O)c5ccccc5[nH]c34)cc2)n1`, the TGI in assay [1] worked out at 51.2 µM; in assay [2], 34.5 µM; in assay [3], 36 µM; in assay [7], 36.1 µM; in [5], 48.2 µM; in assay [6], 80.7 µM.

As to `C1CN2N3CCCC23C1` (stereo not given), the TGI in [1], in [2], in assay [3], in assay [7], in assay [4] and in assay [5] was more than 100 µM each time. The TGI in assay [6] is more than 100 µM.

Consider `Cc1cccc(C(C)(C)C)c1NC(=O)C(=O)Cc1nc2ccccc2s1`, for which the TGI in assay [1], in assay [2], in assay [3], in [7], in assay [4] and in [5] was more than 100 µM in each case. In [6], this compound displayed a TGI of more than 100 µM.

With `CN(C)CCNC(=O)c1cccc2nc3c(Cl)cccc3nc12`, the TGI in [1] is more than 35.6 µM; in assay [2] it was more than 37.3 µM; in assay [3], 13.5 µM; in assay [4], 16.7 µM; in [6], 57 µM.

Turning to `COC(=O)C(CC(=O)c1cc2c(cc1I)OCO2)Cc1cc(OC)c(OC)c(OC)c1I` (stereo not given), the TGI in [1], in assay [2], in [3], in assay [7], in [4] and in [5] was more than 100 µM throughout. Further, the TGI in assay [6] is more than 100 µM.

For `OCc1c(-c2cccc3ccccc23)sc(-c2cccc3ccccc23)c1CO`, the TGI is 24.9 µM in assay [2]; 32.9 µM in assay [3]; 34.7 µM in assay [7]; 30.9 µM in assay [4]; 26.9 µM in [5]; 25.4 µM in [6].

Consider `O=C(O)c1cc(S(=O)(=O)N=NC=C2c3ccccc3N(O)c3ccccc32)ccc1O`, for which the TGI in [1] is more than 100 µM; in assay [2], 37.6 µM; in assay [3] it was 72.4 µM; in assay [7], 33.5 µM; in [4], more than 100 µM; in [5] it was 34.4 µM. In assay [6], this compound displayed a TGI of more than 100 µM.

`C/C(=N\NC(N)=S)c1ccc(C)cc1C`: the TGI is more than 100 µM in assay [1]; more than 100 µM in [2]; more than 100 µM in [3]; more than 100 µM in assay [7]; 94.1 µM in assay [4].

As for `CN1CCCNCCN(CCc2ccccn2)CCCN(C)CC1`, the TGI in assay [1] was more than 100 µM; in assay [2] it was more than 62.8 µM; in [3] it was more than 100 µM; in [7], more than 100 µM; in [4], more than 100 µM; in assay [5], more than 100 µM. In assay [6], the TGI is more than 100 µM.

Take `COc1ccc(/C=C(/C(=O)O)c2cc(OC)c(OC)c(OC)c2)cc1`: the TGI in assay [1], in assay [2], in assay [3], in assay [7], in [4] and in assay [5] was more than 100 µM throughout. The same compound came in with a TGI in assay [6] of more than 100 µM.

Turning to `COc1cc2c(cc1O)[C@H](Cc1ccc(Oc3cc(C[C@H]4c5cc(OC)c(OC)cc5CCN4C)ccc3OC)cc1)NCC2`, the TGI is 32.8 µM in [1]; 49.5 µM in [2]; 26.2 µM in assay [3]; 27.7 µM in assay [7]; 35 µM in [4]; 23.7 µM in assay [5]. The compound further returned a TGI in assay [6] of 31.9 µM.

For `CC(=O)CC(=O)c1cc2c(=O)oc(C)cc2oc1=O`, the TGI in [1], in [10], in assay [2], in [3], in assay [7] and in assay [4] was more than 37.5 µM throughout. Besides, the TGI in [5] and in assay [6] was more than 37.5 µM each time.

In the case of `CCCCCCCCCCCCCCC1OC(=O)c2ccccc21` (stereo not given), the TGI in assay [1], in assay [3], in assay [7], in [4], in assay [5] and in assay [6] was more than 100 µM throughout.

With `Cc1c(N2C(=O)/C(=C\c3ccccc3O)N=C2c2ccccc2)c(=O)n(-c2ccccc2)n1C`, the GI50 in assay [1] is more than 100 µM; in assay [2], more than 100 µM; in assay [8], 41.9 µM; in assay [9], 54 µM; in assay [3] it was 63.7 µM; in [7], more than 100 µM. For the same compound, the GI50 is more than 100 µM in assay [4], 29.8 µM in [5] and 54.4 µM in [6]. Besides, the TGI in [1], in assay [2], in [8], in assay [9], in [3] and in assay [7] was more than 100 µM in each case. Besides, the TGI in assay [4], in [5] and in assay [6] was more than 100 µM throughout.

In the case of `O=C1Oc2cc3c(c4cccc1c24)OCN(c1ccc(Cl)cc1)C3`, the TGI is more than 100 µM in [1]; more than 100 µM in assay [2]; more than 100 µM in assay [3]; more than 100 µM in assay [7]; more than 77.3 µM in assay [4]; more than 100 µM in assay [5]. This compound also had a TGI in [6] of more than 100 µM.

For the compound `O=S(=O)(O)C(O)/C=C/c1ccccc1` (stereo not given), the TGI in [1], in assay [2], in assay [3], in assay [4], in [5] and in [6] was more than 100 µM throughout.

As for `CC(C)(C)C1=NC(S)NC(CCC(=O)Nc2ccccc2[N+](=O)[O-])=C1` (stereo not given), the TGI in [1], in [2], in [3], in [7], in assay [4] and in [5] was more than 100 µM throughout. In assay [6], this compound showed a TGI of more than 100 µM.

Regarding `O=C(/C=C(\[O-])c1ccccc1)CCCCCCC(=O)/C=C(\[O-])c1ccccc1.O=C(/C=C(\[O-])c1ccccc1)CCCCCCC(=O)/C=C(\[O-])c1ccccc1.O=C(/C=C(\[O-])c1ccccc1)CCCCCCC(=O)/C=C(\[O-])c1ccccc1.[La+3].[La+3]`, the GI50 in assay [1], in assay [2], in [3], in assay [7], in assay [4] and in [5] was more than 50 µM in each case. Further, in assay [6], the GI50 was more than 50 µM. In addition, the TGI in assay [1], in [2], in [3], in [7], in [4] and in assay [5] was more than 50 µM each time. In addition, the TGI in [6] is more than 50 µM.

As to `OCCNCO`, the TGI in [1], in [2], in assay [3], in assay [7], in assay [4] and in assay [5] was more than 100 µM in each case. In [6], the TGI was more than 100 µM.

Take `COC(=O)c1c(OC)cccc1C(=O)O`: the TGI in assay [1], in assay [2], in [3], in assay [7], in assay [4] and in [5] was more than 100 µM throughout. For the same compound, the TGI in [6] is more than 100 µM.
